Source: patent publication US20180098969A1, “HODGKIN LYMPHOMA THERAPY” (Purdue Pharmaceutical Products L.P., priority 2016, published 2018)

Experiments:
[1] = system: L540 cell; assay: Apoptosis, annexin V-FITC and Hoechst double staining; type: cell-based, human; conditions: 5 μM, 24 h and 48 h
Description: (§1) This assay was performed on 7 cell lines (HDLM2 was excluded due to the low number of available cells) at 24 h and 48 h following EDO-S101 treatment (5 μM, DMSO). Control cells were cultured in the same final concentration of DMSO. Only viable cells (using Hoechst staining) were focused on, and all necrotic cells were excluded. Apoptosis was determined using annexin V-FITC and Hoechst (33342) double staining according to the manufacturer's instructions (BD Biosciences). Cell-cycle fractions were determined by Hoechst nuclear staining. Briefly, cells were harvested, washed in PBS, incubated with annexin V-FITC and Hoechst solution for 30 minutes at room temperature. Data were collected using a FACSCalibur flow cytometer (BD Biosciences) and analyzed with FlowJo Version 7.5.5 obtainable from FlowJo, LLC. Results represent the mean value of 3 independent experiments.

[2] = system: Hodgkin lymphoma cell lines; assay: as above; type: cell-based, human; conditions: 5 μM, 24 h and 48 h, all cells
Description: as §1

[3] = system: L428 cells; assay: Xenograft in NSG mice, CD30 immunofluorescence of cytospin slides; type: in vivo; parameters: key to Spleen, red pulp activation, diffuse / Liver, Tumour cell infiltration: “0”=without any staining; “1”=minimal, <1% staining; “2”=mild, 1% staining; “3”=moderate, <10% staining; “4”=marked, 10-40% staining; “5”=severe, >40% of cells staining; conditions: for Bone Marrow: Tumour infiltration: Marked / Bone Marrow: Tumour infiltration: Mild / Bone Marrow: Tumour infiltration: Minimal / Bone Marrow: Tumour infiltration: Moderate / Bone Marrow: Tumour infiltration: No / Bone Marrow: Tumour infiltration: Overall / Bone Marrow: Tumour infiltration: Severe / Injection site: Tumour infiltration: Marked / Injection site: Tumour infiltration: Mild / Injection site: Tumour infiltration: Minimal / Injection site: Tumour infiltration: Moderate / Injection site: Tumour infiltration: No / Injection site: Tumour infiltration: Overall / Injection site: Tumour infiltration: Severe / Liver: Tumour infiltration: Marked / Liver: Tumour infiltration: Mild / Liver: Tumour infiltration: Minimal / Liver: Tumour infiltration: Moderate / Liver: Tumour infiltration: No / Liver: Tumour infiltration: Overall / Liver: Tumour infiltration: Severe / Spleen: Tumour infiltration: Marked / Spleen: Tumour infiltration: Mild / Spleen: Tumour infiltration: Minimal / Spleen: Tumour infiltration: Moderate / Spleen: Tumour infiltration: No / Spleen: Tumour infiltration: Overall / Spleen: Tumour infiltration: Severe / Tumour presence: Overall: % of mice
From the text: Immunodeficient NOD-SCID-gammac−/− (NSG) mice aged 5 to 6 weeks were purchased from Charles River (NOD.Cg-Prkdcscid Il2rgtm1Wjl/SzJ). The mice arrived two weeks before the beginning of the experiments and were housed in micro-isolator cages during the entire course of the study. Immediately prior to the injection of Hodgkin lymphoma cells, mice were exposed to 3 Gy gamma irradiation using an IBL637 ^137Cs irradiator at a dose rate of 0.61 Gy/min. From 10^3 to 10^6 cells, either from the original cell lines or following amplification, were injected intravenously via the retro-orbital sinus. The mice were sacrificed by cervical dislocation and different organs were analysed and tumoural infiltration examined using multiple techniques.
Two independent experiments were performed to investigate the dose-effect of EDO-S101 in NSG mice eight weeks after xenografting with L428 cells as in Example 8. The aim of the protocol shown in FIG. […]
The mice were sacrificed by cervical dislocation. The sampled organs consisted of the eyes (site of injection), liver, spleen and bone marrow. Following dissection of different organs, including tumours, the first portion was used for flow cytometry (FACS) and cytogenetic analyses while the second was fixed in 4% paraformaldehyde (PFA) for immunohistochemistry (IHC). To obtain a single cell suspension, the tissues were first cut into pieces. Thereafter, the cells were physically disaggregated using an 80 μm nylon cell strainer and filtered a second time through a 70 μm nylon cell strainer (BD Biosciences, Erembodegem, Belgium).
Cells were cytospun onto poly-L-lysine-coated glass slides at 700 rpm for 4 min, fixed with 10% formalin for 10 min, and treated with 0.25% Triton X-100 solution for 10 min. After blocking with 5% bovine serum albumin (Sigma), the cells were incubated with an anti-CD30 antibody (DAKO A/S, Glostrup, Denmark). Then, cells were treated with Cyanine 3 anti-mouse IgG (Invitrogen, Carlsbad, Calif.). As a negative control, staining was carried out in the absence of primary antibody. The L428-s cell line served as positive control.
Individual microscopic findings following immunofluorescence CD30 staining of cytopsin slides: “0”=without any staining; “1”=minimal, <1% staining; “2”=mild, 1% staining; “3”=moderate, <10% staining; “4”=marked, 10-40% staining; “5”=severe, >40% of cells staining.

For `Cn1c(CCCCCCC(=O)NO)nc2cc(N(CCCl)CCCl)ccc21` [EDO-S101], the sensitivity for apoptosis [1] was “higher sensitivity”, the sensitivity for apoptosis [2] was “high sensitivity” and the “Bone Marrow: Tumour infiltration: Marked” value ([3]; 80 mg/kg) was 0.0%. The “Bone Marrow: Tumour infiltration: Mild” value ([3]; 80 mg/kg) was 0.0%, the “Bone Marrow: Tumour infiltration: Minimal” value (“Bone Marrow … Minimal” for short) ([3]; 80 mg/kg) was 33.3% and the “Bone Marrow: Tumour infiltration: Moderate” value (from here on “Bone Marrow … Moderate”) ([3]; 80 mg/kg) was 0.0%. The “Bone Marrow: Tumour infiltration: No” value ([3]; 80 mg/kg) was 33.3%, the “Bone Marrow: Tumour infiltration: Overall” value (shortened to “Bone Marrow … Overall”) ([3]; 80 mg/kg) was 33.3% and the “Bone Marrow: Tumour infiltration: Severe” value ([3]; 80 mg/kg) was 0.0%. The “Injection site: Tumour infiltration: Marked” value (shortened to “Injection site … Marked”) ([3]; 80 mg/kg) was 0.0%, the “Injection site: Tumour infiltration: Mild” value (“Injection site … Mild” for short) ([3]; 80 mg/kg) was 33.3% and the “Injection site: Tumour infiltration: Minimal” value (from here on “Injection site … Minimal”) ([3]; 80 mg/kg) was 0.0%. The “Injection site: Tumour infiltration: Moderate” value (“Injection site … Moderate” for short) ([3]; 80 mg/kg) was 0.0%, the “Injection site: Tumour infiltration: No” value ([3]; 80 mg/kg) was 0.0% and the “Injection site: Tumour infiltration: Overall” value (from here on “Injection site … Overall”) ([3]; 80 mg/kg) was 33.3%. For the same compound, the “Injection site: Tumour infiltration: Severe” value (“Injection site … Severe” for short) ([3]; 80 mg/kg) was 0.0%, the “Liver: Tumour infiltration: Marked” value ([3]; 80 mg/kg) was 0.0% and the “Liver: Tumour infiltration: Mild” value ([3]; 80 mg/kg) was 0.0%. The “Liver: Tumour infiltration: Minimal” value ([3]; 80 mg/kg) was 0.0%, the “Liver: Tumour infiltration: Moderate” value ([3]; 80 mg/kg) was 0.0% and the “Liver: Tumour infiltration: No” value ([3]; 80 mg/kg) was 100.0%. The “Liver: Tumour infiltration: Overall” value ([3]; 80 mg/kg) was 0.0%, the “Liver: Tumour infiltration: Severe” value ([3]; 80 mg/kg) was 0.0% and the “Spleen: Tumour infiltration: Marked” value ([3]; 80 mg/kg) was 0.0%. For the same compound, the “Spleen: Tumour infiltration: Mild” value ([3]; 80 mg/kg) was 0.0%, the “Spleen: Tumour infiltration: Minimal” value ([3]; 80 mg/kg) was 0.0% and the “Spleen: Tumour infiltration: Moderate” value ([3]; 80 mg/kg) was 0.0%. For the same compound, the “Spleen: Tumour infiltration: No” value ([3]; 80 mg/kg) was 33.3%, the “Spleen: Tumour infiltration: Overall” value ([3]; 80 mg/kg) was 0.0% and the “Spleen: Tumour infiltration: Severe” value ([3]; 80 mg/kg) was 0.0%. For the same compound, the “Tumour presence: Overall” value ([3]; 80 mg/kg) was 66.7%, the “Bone Marrow: Tumour infiltration: Marked” value ([3]; 1 * 60 mg/kg) was 0.0% and the “Bone Marrow: Tumour infiltration: Mild” value ([3]; 1 * 60 mg/kg) was 0.0%. For the same compound, the “Bone Marrow … Minimal” value ([3]; 1 * 60 mg/kg) was 25.0%, the “Bone Marrow … Moderate” value ([3]; 1 * 60 mg/kg) was 0.0% and the “Bone Marrow: Tumour infiltration: No” value ([3]; 1 * 60 mg/kg) was 0.0%. For the same compound, the “Bone Marrow … Overall” value ([3]; 1 * 60 mg/kg) was 25.0%, the “Bone Marrow: Tumour infiltration: Severe” value ([3]; 1 * 60 mg/kg) was 0.0% and the “Injection site … Marked” value ([3]; 1 * 60 mg/kg) was 75.0%. The “Injection site … Mild” value ([3]; 1 * 60 mg/kg) was 0.0%, the “Injection site … Minimal” value ([3]; 1 * 60 mg/kg) was 0.0% and the “Injection site … Moderate” value ([3]; 1 * 60 mg/kg) was 25.0%. The “Injection site: Tumour infiltration: No” value ([3]; 1 * 60 mg/kg) was 0.0%, the “Injection site … Overall” value ([3]; 1 * 60 mg/kg) was 100.0% and the “Injection site … Severe” value ([3]; 1 * 60 mg/kg) was 0.0%. The “Liver: Tumour infiltration: Marked” value ([3]; 1 * 60 mg/kg) was 0.0%, the “Liver: Tumour infiltration: Mild” value ([3]; 1 * 60 mg/kg) was 0.0% and the “Liver: Tumour infiltration: Minimal” value ([3]; 1 * 60 mg/kg) was 50.0%. For the same compound, the “Liver: Tumour infiltration: Moderate” value ([3]; 1 * 60 mg/kg) was 25.0%, the “Liver: Tumour infiltration: No” value ([3]; 1 * 60 mg/kg) was 25.0% and the “Liver: Tumour infiltration: Overall” value ([3]; 1 * 60 mg/kg) was 75.0%. The “Liver: Tumour infiltration: Severe” value ([3]; 1 * 60 mg/kg) was 0.0%, the “Spleen: Tumour infiltration: Marked” value ([3]; 1 * 60 mg/kg) was 0.0% and the “Spleen: Tumour infiltration: Mild” value ([3]; 1 * 60 mg/kg) was 0.0%. For the same compound, the “Spleen: Tumour infiltration: Minimal” value ([3]; 1 * 60 mg/kg) was 0.0%, the “Spleen: Tumour infiltration: Moderate” value ([3]; 1 * 60 mg/kg) was 0.0% and the “Spleen: Tumour infiltration: No” value ([3]; 1 * 60 mg/kg) was 25.0%. The “Spleen: Tumour infiltration: Overall” value ([3]; 1 * 60 mg/kg) was 0.0%, the “Spleen: Tumour infiltration: Severe” value ([3]; 1 * 60 mg/kg) was 0.0% and the “Tumour presence: Overall” value ([3]; 1 * 60 mg/kg) was 100.0%. For the same compound, the Bone marrow ([3]; 1 * 60 mg/kg, individual mice) was 1 (“1”=minimal, <1% staining), the “Spleen, red pulp activation, diffuse” value ([3]; 1 * 60 mg/kg, individual mice) was 0 and the “Eye and/or periocular mucosa, periocular tumour cell infiltration, focal/multifocal/diffuse” value ([3]; 1 * 80 mg/kg, individual mice) was 2 (“2”=mild, 1% staining). The “Liver, Tumour cell infiltration” value ([3]; 1 * 80 mg/kg, individual mice) was 0, the “Spleen, red pulp activation, diffuse” value ([3]; 1 * 80 mg/kg, individual mice) was 0 and the “Bone Marrow: Tumour infiltration: Marked” value ([3]; 2 * 60 mg/kg) was 0.0%. The “Bone Marrow: Tumour infiltration: Mild” value ([3]; 2 * 60 mg/kg) was 0.0%, the “Bone Marrow … Minimal” value ([3]; 2 * 60 mg/kg) was 55.6% and the “Bone Marrow … Moderate” value ([3]; 2 * 60 mg/kg) was 0.0%. The “Bone Marrow: Tumour infiltration: No” value ([3]; 2 * 60 mg/kg) was 22.2%, the “Bone Marrow … Overall” value ([3]; 2 * 60 mg/kg) was 55.6% and the “Bone Marrow: Tumour infiltration: Severe” value ([3]; 2 * 60 mg/kg) was 0.0%. For the same compound, the “Injection site … Marked” value ([3]; 2 * 60 mg/kg) was 0.0%, the “Injection site … Mild” value ([3]; 2 * 60 mg/kg) was 11.1% and the “Injection site … Minimal” value ([3]; 2 * 60 mg/kg) was 0.0%. The “Injection site … Moderate” value ([3]; 2 * 60 mg/kg) was 0.0%, the “Injection site: Tumour infiltration: No” value ([3]; 2 * 60 mg/kg) was 0.0% and the “Injection site … Overall” value ([3]; 2 * 60 mg/kg) was 11.1%. For the same compound, the “Injection site … Severe” value ([3]; 2 * 60 mg/kg) was 0.0%, the “Liver: Tumour infiltration: Marked” value ([3]; 2 * 60 mg/kg) was 0.0% and the “Liver: Tumour infiltration: Mild” value ([3]; 2 * 60 mg/kg) was 11.1%. For the same compound, the “Liver: Tumour infiltration: Minimal” value ([3]; 2 * 60 mg/kg) was 44.4%, the “Liver: Tumour infiltration: Moderate” value ([3]; 2 * 60 mg/kg) was 0.0% and the “Liver: Tumour infiltration: No” value ([3]; 2 * 60 mg/kg) was 44.4%. The “Liver: Tumour infiltration: Overall” value ([3]; 2 * 60 mg/kg) was 55.6%, the “Liver: Tumour infiltration: Severe” value ([3]; 2 * 60 mg/kg) was 0.0% and the “Spleen: Tumour infiltration: Marked” value ([3]; 2 * 60 mg/kg) was 0.0%. The “Spleen: Tumour infiltration: Mild” value ([3]; 2 * 60 mg/kg) was 0.0%, the “Spleen: Tumour infiltration: Minimal” value ([3]; 2 * 60 mg/kg) was 44.4% and the “Spleen: Tumour infiltration: Moderate” value ([3]; 2 * 60 mg/kg) was 0.0%. For the same compound, the “Spleen: Tumour infiltration: No” value ([3]; 2 * 60 mg/kg) was 11.1%, the “Spleen: Tumour infiltration: Overall” value ([3]; 2 * 60 mg/kg) was 44.4% and the “Spleen: Tumour infiltration: Severe” value ([3]; 2 * 60 mg/kg) was 0.0%. For the same compound, the “Tumour presence: Overall” value ([3]; 2 * 60 mg/kg) was 66.7%, the “Eye and/or periocular mucosa, periocular tumour cell infiltration, focal/multifocal/diffuse” value ([3]; 2 * 60 mg/kg, individual mice) was 2 (“2”=mild, 1% staining) and the “tumour cells in organs (liver, spleen, bone marrow)” value ([3]; single dose of 80 mg/kg) was “No tumour cells were observed in any organs”.
